We go through 15 compounds from ChEMBL document CHEMBL1177663, “Synthesis and anti-HIV activity of 2-naphthyl substituted DAPY analogues as non-nucleoside reverse transcriptase inhibitors” (Bioorg Med Chem, 2010).

Data set [1] concerns Human immunodeficiency virus 1. The data set can be described thus: Antiviral activity against wild type HIV1 3B infected in human MT4 cells assessed as inhibition of virus-induced cytopathic effect after 4 days by MTT assay. The format is functional, organism-based. To be noted: Human immunodeficiency virus 1, 3B, MT4, 96 h. (Damage to the host cells serves as the signal in cytopathic effect assays.)

Data set [2] can be described thus: Cytotoxicity against human MT4 cells after 4 days by MTT assay. The data set is classed as cell-based. (Formazan colour is commonly taken as a measure of viable cells.)
Data set [3] can be described thus: Selectivity index, ratio of CC50 for human MT4 cells to EC50 for wild type HIV1 3B. To be noted: read-out: Ratio CC50/EC50. The data set is classed as toxicity, cell-based.
The subject of data set [4] is Human immunodeficiency virus 1. Nature of the data set: Antiviral activity against HIV1 bearing reverse transcriptase K103N and Y181C double mutation infected in human MT4 cells assessed as inhibition of virus-induced cytopathic effect after 4 days by MTT assay. The format is functional, organism-based. The following applies: Human immunodeficiency virus 1, MT4, 96 h.

Data set [5] concerns the target Human immunodeficiency virus type 1 reverse transcriptase (Human immunodeficiency virus 1, UniProt Q72547). The data set can be described thus: Inhibition of HIV1 reverse transcriptase.

Regarding `COc1cc2cc(C#N)ccc2c(Cl)c1Oc1ccnc(Nc2ccc(C#N)cc2)n1`, the results for the EC50 in data set [1] and in data set [4] were 7 nM and 150 nM, respectively. For the same compound, in data set [2], the 50% cytotoxic concentration (CC50) at 96 h was more than 191000 nM. The selectivity ratio in data set [3] is not below 25700.
In data set [5], `N#Cc1ccc(Nc2nccc(Oc3ccc4cc(C#N)ccc4c3Br)n2)cc1` showed an IC50 of 3010 nM. Also, the EC50 in data set [1] came out at 2 nM; in data set [4] it was 240 nM. Besides, half-maximal cytotoxicity in data set [2] (CC50 at 96 h) was put at 283000 nM. In data set [3], the selectivity ratio came out at 181000.
Turning to `O=C1Nc2ccc(Cl)cc2[C@@](C#CC2CC2)(C(F)(F)F)O1` [EFAVIRENZ], the CC50 at 96 h in data set [2] was more than 63400 nM. Also, the EC50 in data set [4] was 560 nM.
For the compound `Cc1cnc(Nc2ccc(C#N)cc2)nc1Oc1ccc2cc(C#N)ccc2c1`, the values for the 50% effective concentration (EC50) in data set [1] and in data set [4] were 7 nM and 332000 nM, respectively. In data set [2], this compound came in with a CC50 at 96 h of more than 332000 nM. In data set [3], the selectivity ratio is more than 44900.
Regarding `COc1cc2cc(C#N)ccc2cc1Oc1ccnc(Nc2ccc(C#N)cc2)n1`, it took 1320 nM to reach half-maximal inhibition in data set [5] (IC50). The EC50 in data set [1] is 2 nM; in data set [4], 319000 nM. In data set [2], the 50% cytotoxic concentration (CC50) at 96 h is more than 318000 nM. Further, in data set [3], the selectivity ratio was more than 158000.
Turning to `Cc1cc(Oc2ccc3cc(C#N)ccc3c2)nc(Nc2ccc(C#N)cc2)n1`, the results for the EC50 in data set [1] and in data set [4] were 3 nM and 332000 nM, respectively. Further, the CC50 at 96 h in data set [2] is more than 332000 nM. The selectivity ratio in data set [3] was more than 96500.
In the same order, the values of `N#Cc1ccc(Nc2nccc(Oc3ccc4cc(C#N)ccc4c3Cl)n2)cc1` are 6 nM, 700 nM, 269000 nM and 48000.
For `Cc1cnc(Nc2ccc(C#N)cc2)nc1Oc1ccc2cc(C#N)ccc2c1Br`, in that order: 12 nM, 830 nM, more than 274000 nM and more than 23800.
Compound `N#Cc1ccc(Nc2nccc(Oc3cc4ccc(C#N)cc4cc3Br)n2)cc1` gave an IC50 in data set [5] of 1130 nM. Besides, the EC50 in data set [1] is 1 nM; in data set [4] it was more than 56500 nM. This compound came in with a CC50 at 96 h in data set [2] of more than 56500 nM. Further, the selectivity ratio in data set [3] amounted to 50400.
As to `Cc1cc(Oc2ccc3cc(C#N)ccc3c2Br)nc(Nc2ccc(C#N)cc2)n1`, the EC50 in data set [1] was 7 nM; in data set [4] it was 220 nM. The same compound had a CC50 at 96 h in data set [2] of more than 274000 nM. Also, in data set [3], the selectivity ratio is more than 40100.
With `CC(C)Nc1cccnc1N1CCN(C(=O)c2cc3cc(NS(C)(=O)=O)ccc3[nH]2)CC1` [DELAVIRDINE], the CC50 at 96 h in data set [2] was more than 3620 nM. The EC50 in data set [4] was more than 3620 nM.
As for `Cc1ccnc2c1NC(=O)c1cccnc1N2C1CC1` [NEVIRAPINE], the EC50 was 75 nM in data set [1] and more than 15000 nM in data set [4]. In data set [2], this compound registered a CC50 at 96 h of more than 15000 nM.
In turn, `COc1cc2cc(C#N)ccc2c(OC)c1Oc1ccnc(Nc2ccc(C#N)cc2)n1` gave an IC50 in data set [5] of 94.5 nM. Besides, the results for the EC50 in data set [1] and in data set [4] were 5 nM and 160 nM, respectively. For the same compound, the CC50 at 96 h in data set [2] was more than 118000 nM. Moreover, the selectivity ratio in data set [3] is not below 25000.
In the same order, the values of `N#Cc1ccc(Nc2nccc(Oc3ccc4cc(C#N)ccc4c3)n2)cc1` are 8720 nM, 3 nM, 6300 nM, more than 68800 nM and 20500.
In the same order, the values of `COc1c(Oc2ccnc(Nc3ccc(C#N)cc3)n2)ccc2cc(C#N)ccc12` are 2290 nM, 2 nM, 380 nM, more than 211000 nM and not below 134000.

For orientation: EC50 means the concentration that produces a half-maximal response. A word on the CC50: it is the concentration that lowers cell viability or growth by half. Low readings indicate harm at low concentration, high ones better tolerance by the cells. What is called IC50 is the concentration at which inhibition is half-maximal.
